As to `Fc1ccc2c(C3CCN(CC4COc5ccccc5O4)CC3)noc2c1` (stereo unspecified), the melting point (as a rule, the temperature, or range, at which the solid turns liquid) fell in the range of 86 to 87 °C.
For `CC1(COCc2ccccc2)COC(C)(C(=O)N(C(N)=O)c2ccccc2)O1` (stereo unspecified) the value was 91 to 94 °C; for `Nc1ccc(Oc2ccc(C3(c4ccc(Oc5ccc(N)cc5)cc4)CCC(c4ccccc4)CC3)cc2)cc1`, 90.7 to 92.2 °C; for `Nc1nnc(-c2ccc(F)c(F)c2Nc2ccc(Br)cc2F)o1`, 245 °C.
Regarding `O=c1c2cc(F)c(F)cc2nc(CSc2ncnc3[nH]cnc23)n1-c1ccccc1Cl`, the melting point was found to be 208 °C.
The molecule `CCOC(=O)c1ccc(NC)c(C(O)c2ccccc2)c1` (stereo unspecified) showed a melting point of 132 to 135 °C.
In the case of `COc1cc(C=O)cc(C(F)(F)F)c1O` it was 151 to 152 °C; in that of `Cc1nc2c3c(c(C(=O)NC4CC4)cc2n1C)CCC(c1ccccc1)O3` (stereo unspecified), 312 to 313 °C; in that of `Cc1c(C=O)c2cnnc(OCc3ccc(F)cc3)c2n1C[C@H]1C[C@@H]1C`, 138 to 140 °C.
In the case of `CS(=O)(=O)N1C[C@@H](P(=O)(c2ccccc2)c2ccccc2)C[C@H]1CO` it was 138 to 139 °C; in that of `COc1cc(O)cc(CN2C(=O)N(c3cnn(Cc4c(C)noc4C)c3)C(=O)C2(C)C)c1`, 72 to 74 °C; in that of `CCOCc1nc2c(N)nc3cc(-c4cccnc4)ccc3c2n1CC(O)CO` (stereo unspecified), 202 to 204 °C.
In turn, `Cc1ccc(CCC(N)CC(=O)O)cc1` (stereo unspecified) had a melting point of 206 to 207 °C.
`CN1CCC(Oc2ccccc2[N+](=O)[O-])(c2ccccc2)CC1` showed a melting point of 80 to 82 °C.
The molecule `CN(C)CC1CC(c2ccc(S(C)(=O)=O)cc2)=C(c2cc(F)cc(F)c2)C1=O` (stereo unspecified) had a melting point of 104 to 106 °C.
Take `O=c1[nH]c2ccccc2cc1CN1CC=C(/C=C/c2ccccc2)CC1`: the melting point was 258 to 260 °C.
Take `CCOC(=O)CCNC(=O)C(Cc1ccc(-c2ccccc2)cc1)N(CP(=O)(O)O)C(OC(=O)CC)C(C)C` (stereo unspecified): the melting point was 154 to 158 °C.
`CS(=O)(=O)N1CCN([C@@H](CNS(=O)(=O)c2ccc(OCc3ccnc4ccccc34)cc2)C(=O)NO)CC1` registered a melting point of 180 °C.
In turn, `COC(=O)c1ccc(OC)c(F)c1F` registered a melting point of 66 to 68 °C.
For the molecule `CCOC(=O)c1c[nH]c2cc(Cl)ncc2c1=O`, the melting point is 300 °C.
Molecule `COc1ccc(N2CCN(C(=O)C(c3ccccc3)n3cnc4[nH]ncc4c3=S)CC2)cc1` (stereo unspecified) displayed a melting point of 114 to 118 °C.
Take `CCOC(=O)C(=CNc1ncnc2ccccc12)C(=O)OCC`: the melting point is 115 to 117 °C.
Consider `CCCCCCCCCCCCCCC(=O)C(=O)NC(C=CC(=O)O)CCCC` (stereo unspecified), for which the melting point lay within 65 to 67 °C.
Molecule `[N-]=[N+]=NC1(O)CC(n2cc(Br)c(=O)[nH]c2=O)OC1CO` (stereo unspecified) came in with a melting point of 148 to 149 °C.
In the case of `O=C(Oc1ccc(CS(=O)(=O)Cc2ccc(OC(=O)C3CC3)c([N+](=O)[O-])c2)cc1[N+](=O)[O-])C1CC1` it was 114 to 116 °C; in that of `COC(=O)NC12CC=CCC1CSc1ccccc12` (stereo unspecified), 150 to 152 °C; in that of `Nc1ccccc1C1CCCN(C(=O)C(F)(F)F)C1` (stereo unspecified), 138 °C.
As for `O=C(O)CCCCCCCn1c(-c2ccccc2)nc(-c2ccccc2)c1-c1ccccc1`, the melting point came to 162 °C.
For `COC(=O)Cc1c(C)n(Cc2ccc(Cl)cc2)c2ccc(OCc3ccc4ccccc4n3)cc12` the value was 132 to 134 °C; for `O=C1Nc2ccc(Cl)c(Cl)c2C(=O)N2CCC[C@@H]12`, 203 to 205 °C; for `COc1cccc(C(=O)CCCN2CCC(O)(c3ccc(Cl)cc3)CC2)c1`, 127 to 129 °C.
On to `CC(=O)N1c2c(ccc3c2nc(C)n3C)[C@@H]2O[C@@H]2[C@H]1c1ccccc1`, for which the melting point lay in the range of 200 to 205 °C.
Turning to `COC1Oc2c(c(=O)oc3cc(O)ccc23)C1c1c(O)c2ccc(O)cc2oc1=O` (stereo unspecified), the melting point is over 300 °C.
In the case of `Cc1sc(N)nc1-c1ccc(CCN2CCN(c3cccc(C(F)(F)F)c3)CC2)cc1` it was 110 to 115 °C; in that of `CN(C(=O)C(=O)c1cn(Cc2ccc(Cl)cc2)c2ccccc12)C1=CC(=O)OC1`, 205 to 208 °C.
Turning to `CC(C)(C#N)c1cc(C(C)(C)C#N)cc(C(C)(C)n2cncn2)c1`, the melting point was in the range of 185 to 188 °C.
`COC(=O)CCC(NC(=O)CCCC#Cc1cnc2nc(NC(=O)C(C)(C)C)nc(O)c2c1)C(=O)OC` (stereo unspecified) yielded a melting point of 159 to 160 °C.
`Oc1c(CCc2ccccc2)cnc2c(-c3cc(-c4ccccc4)cs3)cnn12` gave a melting point of 278 to 285 °C.
Regarding `Cc1[nH]c2ccccc2c1CCCN1CCC(C(=O)c2ccc(F)cc2)CC1`, the melting point was 135 to 137 °C.
With `O=Cc1cn(Cc2ccc(Cl)cc2)nc1CN1CCC(c2ccccc2)(c2ccccc2)CC1`, the melting point was 133 to 134 °C.
Take `COc1cc2c(c(OC)c1OC)C(C#N)N(C(=O)c1ccccc1)C=C2` (stereo unspecified): the melting point was 158 to 160 °C.
`CCOC(=O)CC1=NCC(c2cccc(OCc3ccc4ccccc4n3)c2)O1` (stereo unspecified) came in with a melting point of 94 to 95 °C.
With `Cc1ncc(CCCOc2c(C)cc(-c3noc(C(F)(F)F)n3)cc2C)s1`, the melting point lay within 62 to 64 °C.
Regarding `N#Cc1ccccc1-c1c(O)ccc2c3c(oc12)-c1cc(O)ccc1CC3`, the melting point fell in the range of 277 to 279 °C.
In the case of `Cn1cc(C2=C(c3c4n(c5ccccc35)CCCC(CO)C4)C(=O)NC2=O)c2ccccc21` (stereo unspecified) it was 268 to 270 °C.
Molecule `Nc1nc(/C(=N/OCc2nnn[nH]2)C(=O)O)cs1` gave a melting point of 151 to 152 °C.
In the case of `O=C1c2sccc2-n2cncc2[C@@H]2CCCN12`, the melting point lay in the range of 228 to 230 °C.
With `Cc1cc(-c2nnc3c4ccccc4c(OCc4ncn(C)n4)nn23)no1`, the melting point is 249 to 251 °C.
The molecule `CNC(=S)NCCCSc1ncc[nH]1` gave a melting point of 139 to 141 °C.
Regarding `O=C1c2ccccc2CCc2ncsc21`, the melting point fell in the range of 83 to 86 °C.
As to `O=C(O)Cc1ccc(OCCNC(=O)C2Cc3ccccc3N2S(=O)(=O)c2ccc(-c3cc(C(F)(F)F)ccc3Cl)cc2)c(F)c1` (stereo unspecified), the melting point is 100 °C.
In the case of `Nc1nnc(-c2ccc3occ(-c4cccc(OC(F)(F)F)c4)c3c2)o1` it was 182 to 183 °C; in that of `O=C(O)[C@H](Cc1ccc(C(F)(F)F)o1)[C@@H](O)c1ccc(F)cc1` (racemic), 86 to 87 °C; in that of `FC(F)(F)c1cc(-c2ccc(Cl)cc2)[nH]c1C(F)(F)F`, 72 to 73 °C.
The molecule `CCCC(=O)Nc1ccccc1C(F)(F)F` yielded a melting point of 76 °C.
`Cc1cc(C#N)cnc1Oc1c(Cl)cc(N)cc1Cl` showed a melting point of 212 °C.
`O=C(Nc1ccc(CNc2nc(Cl)nc3cc(I)ccc23)cc1)c1ccc(Cl)nc1` returned a melting point of 315 °C.
With `CCCOC(=O)Cc1cc(O)c(C)cc1O`, the melting point is 101 °C.
In the case of `COC(OC)C1(C)CN=C(c2cc3cccc(N(C)S(=O)(=O)c4cccs4)c3[nH]2)S1` (stereo unspecified) it was 153 to 154 °C.
`COC(=O)Cc1cc(Br)ccc1OCc1ccc(OCc2nc(-c3ccccc3)oc2C)cc1` displayed a melting point of 100 to 101 °C.
`Cn1cnc([N+](=O)[O-])c1Oc1ccccc1` displayed a melting point of 116 to 118 °C.
Molecule `Cc1nc(NC(=O)N(C)C)sc1C` displayed a melting point of 202 to 204 °C.
Molecule `C[Si](C)(C)C#Cc1ccc(C#Cc2ccc(F)cc2)cc1` registered a melting point of 144 to 146 °C.
`O=C(NCc1ccccc1)Nc1cc(CNc2ccccc2C(=O)Nc2cccc(C(F)(F)F)c2)ccn1` had a melting point of 153 °C.
As to `C=CCc1cc(Nc2ccn(-c3ccccc3)n2)cc(CC=C)c1O`, the melting point is 87 to 88 °C.
Consider `CCC(CC)C(=O)Nc1ccc2ncnc(NC=C(C(=O)OC)C(=O)OC)c2c1`, for which the melting point is 221 to 225 °C.
With `COc1ccc2c(c1)C(Cc1ccnc(F)c1)(Cc1ccnc(F)c1)c1cccnc1O2`, the melting point lay within 196 to 197 °C.
The molecule `COc1ccc2c(c1)C(C)(C)Oc1c-2ccc(O)c1C(C)=O` showed a melting point of 103 to 104 °C.
Consider `COC(=O)Cc1cccc(CCN(C)CCCC(C#N)(c2ccc(OC)c(OC)c2)C(C)C)c1` (stereo unspecified), for which the melting point fell in the range of 77 to 82 °C.
On to `O=[N+]([O-])c1ccc(S(=O)(=O)c2ncc(Cl)cn2)s1`, for which the melting point was in the range of 144 to 146 °C.
Molecule `O=C1CCCc2c1c1cccc(F)c1n2Cc1ccccc1` gave a melting point of 183 to 184 °C.
The molecule `C(=C\c1cn(-c2ccccc2)nc1OCc1ccccc1)/c1cscn1` displayed a melting point of 101 to 102 °C.
`O=C(O)C1(c2cccc(C(F)(F)F)c2)CCN(Cc2ccccc2)CC1` had a melting point of 243 °C.
`Cc1cc(C)cc(NC(=O)Cc2ccc(OC3(C(=O)N[C@H](CC(C)C)C(=O)O)CCCC3)cc2)c1` gave a melting point of 119 to 120 °C.
`CN1CCC(N(C)C(=O)CNS(=O)(=O)c2ccc(Nc3nccc(Nc4ccc(F)cc4)n3)cc2)CC1` returned a melting point of 233 to 234 °C.
In turn, `O=C1NCCN1c1ccc(S(=O)(=O)Nc2ccc3c(c2)CCC3)cc1` yielded a melting point of 228 to 230 °C.
For `O=C(O[C@H]1Cc2c(O)cc(O)cc2O[C@@H]1c1ccc(O)c(O)c1)c1cc(O)c(O)c(O)c1` the value was 105 to 107 °C; for `N#Cc1cc(-c2ccccc2)c(=O)n2c1-c1ccccc1CC2`, 204 to 205 °C.
For `C=CCn1cc(C(=O)O)c(=O)c2cc(F)c(N3CCOCC3)cc21` the value was 210 °C.
`CCCCNC(=O)C1CCCCC1(O)C(=O)c1ccc(OC)cc1` (stereo unspecified) displayed a melting point of 94 to 95 °C.
Turning to `COC(=O)c1cc(-c2ccc(C)cc2)n(Cc2ccc(Cl)c(Cl)c2)n1`, the melting point turned out to be 98.6 °C.
In the case of `CCn1nc(C(F)(F)F)cc1NC(=O)c1c(C)cccc1C(=O)NC(C)C` it was 223 to 226 °C; in that of `CCc1nc(NC2CCCC2)c(-c2ccccc2)c(NC2CCCC2)n1`, 70 to 71 °C.
In the case of `COCCOc1ccc(/C=C/C(=O)O)c(NC(=O)c2ccc(Cl)cc2Cl)c1` it was 243 to 245 °C; in that of `COc1ccc(C2=c3c(c4c(c5ccccc35)=C(c3ccc(OC)cc3)CO4)NC2)cc1`, 340 °C; in that of `Cc1cnc(NC(=O)C2c3ccccc3Oc3ccccc32)o1`, 217 to 220 °C.
